Data from patent publication US9241964B2, “Composition from Sphaeranthus indicus and Garcinia mangostana for the control of metabolic syndrome” (LAILA NUTRACEUTICALS, priority 2009, dated 2016).

Tested on: aP2/FABP4
Test: Immunoblot of aP2/FABP4 in 3T3-L1 adipocytes
Type: cell-based, mouse
Details: immunoblot normalized with actin
Excerpt: The inventors have then evaluated the modulation of metabolic biomarkers those are primarily responsible for the adipogenesis processes, insulin resistance in type 2 diabetes, obesity, metabolic syndrome and other metabolic disorders such as Peroxisome proliferator-activated receptor gamma (PPARγ), CD36, adipocyte fatty acid binding protein 4 (FABP4 or aP2), Perilipin, and beta-3 Adrenergic Receptor (β3AR) during adipogenesis process in 3T3-L1 adipocytes by ethyl actate extract (LI/DD-II/054A/01) of Sphaeranthus indicus and 7-hydroxyfrullanolide (LI054A01) using an immunoblot assay. […] The protein extracts were evaluated by immunoblot assay, and the immuno-reactive bands were developed with West-pico chemiluminescent substrate and the blot images were captured in a Kodak Image Station, normalized with expression of actin.
Experimental protocol: Mouse pre-adipocyte 3T3-L1 cells are maintained in Dulbecco's Modified Eagles Medium (DMEM) supplemented with 2 mM glutamine, 4.5 g/L glucose and 10% fetal bovine serum. […] Protein content was measured in Bradford method by using Coomassie blue dye and cell lysates were stored in aliquots at −80° C. until further use. […]
Inhibition of protein expression of biomarker molecules adipocytes in presence or absence of Sphaeranthus indicus extract LI/DD-II/054A/01 and 7-hydroxyfrullanolide (LI054A01) was evaluated in immunoblot assay. […]

SMILES: C=C1C(=O)O[C@H]2C3=C(C)CCC[C@]3(C)CC[C@@]12O [LI054A01, 7-α-hydroxy-4,11(13)-eudesmadien-12,6-olide]
- aP2/FABP4 protein level: potently ameliorated
